Patent publication US20040192581A1, “Topical anti-infective formulations” (priority 2002, published 2004)

System: S. aureus
Experiment: In vitro efficacy of nisin cream versus nisin in PBS, viable cell count
Assay type: cell-based
Conditions: 37° C. for 60 minutes
Description: A topical cream (100 g) was prepared by heating the waxes and oils to about 70° C. Nisin in an aqueous solution was added after the cream had cooled to room temperature. The following ingredients were mixed in a 250 mL glass beaker until a homogenous compound was formed:
To test the anti-infective activity of the nisin-based cream, and to compare this activity to that of the same concentration of nisin in PBS, 20 μL of a suspension of 9×10^8 CFU/mL S. aureus was added to 1 g of cream and 1 mL of PBS at the nisin concentrations indicated in Table I. The samples were vortexed to mix and incubated at 37° C. for 60 minutes. 1 mL of mineral oil was added to the cream to facilitate pipetting and then serial dilutions were plated for enumeration of viable cells. The data in Table I show the viable cells for each nisin concentration.

## Nisin
Nisin 0.5 μg/ml in PBS
  viable cells, PBS: TNTC
Nisin 0.5 μg/ml in cream
  viable cells, Cream: 1082 cfu/ml
Nisin 2.5 μg/ml in PBS
  viable cells, PBS: TNTC
Nisin 2.5 μg/ml in cream
  viable cells, Cream: 140 cfu/ml
Nisin 12.5 μg/ml in PBS
  viable cells, PBS: 482 cfu/ml
Nisin 12.5 μg/ml in cream
  viable cells, Cream: 12 cfu/ml
